Here are results for seven compounds from ChEMBL document CHEMBL1201862, “PubChem BioAssay data set” (2004).

Each structure is given as a SMILES string.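 Step 1: Grow cells in 96-well plates. Step 2: Expose to compound for 48 hours at 5 concentrations. Step 3: Interpolate endpoints linearly; if unreached, use highest concentration. Abbreviation: GI50, concentration required for 50% inhibition of growth.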 The source made the active and inactive calls. Cut-off read from the data, not from the text of the source: active = GI50 up to about 1.1 µM and inactive = higher. A value given as a limit tells only on which side of the number the result lay.

Test systems include NCI-H460; HL-60; MCF7; HOP-62; MDA-MB-435; A498; HCT-15; M14; NCI-H522; OVCAR-5; 786-0; OVCAR-8; RXF 393; SK-OV-3; K562; MOLT-4; NCI-H23; SNB-75; LOX IMVI; KM12.
Common to all, as to assay: NCI-60 cell line screen, 48 h

Take `O=CC(O)C(O)C1OC(=O)c2cc(O)c(O)c(O)c2C2=C(O)C(O)=C3OC(=O)c4c(c(O)c(O)c5c4C3C2C(=O)O5)-c2c(cc(O)c(O)c2O)C(=O)OCC1O` (stereo not given): the GI50 in the assay with NCI-H460 is 26.2 µM (inactive); in the assay on HL-60 it was 12.3 µM (inactive); with MCF7 it was 17.2 µM (inactive); in the assay with HOP-62, 72.6 µM (inactive); with MDA-MB-435 it was 16.5 µM (inactive); with A498 it was 44.9 µM (inactive). Also, the GI50 is 20.3 µM in the assay with HCT-15; 22.4 µM (inactive) in the assay with M14; 35.6 µM (inactive) in the assay with NCI-H522; 24 µM (inactive) in the assay with OVCAR-5; 16.3 µM (inactive) with 786-0; 20.1 µM (inactive) in the assay with OVCAR-8. The GI50 with RXF 393 is > 100 µM (inactive); with SK-OV-3, 25.9 µM (inactive); with K562, 20.7 µM (inactive); with MOLT-4, 20.7 µM (inactive); in the assay on NCI-H23, 78 µM (inactive); with SNB-75, 27.4 µM (inactive). For the same compound, the GI50 in the assay on LOX IMVI is 13.6 µM (inactive); in the assay with KM12, 10.4 µM (inactive).

In the case of `Cc1ccc(-c2cc(-c3ccco3)c(C#N)c(=S)[nH]2)cc1`, the GI50 with NCI-H460 is 46.2 µM (inactive); in the assay on HL-60, 57 µM (inactive); in the assay with MCF7, 16.2 µM (inactive); in the assay with HOP-62, > 100 µM (inactive); in the assay on MDA-MB-435, 23.9 µM (inactive); in the assay on A498, 36.3 µM (inactive). For the same compound, the GI50 was 42 µM in the assay with HCT-15; 63.8 µM (inactive) in the assay with M14; 44.2 µM (inactive) in the assay on NCI-H522; > 100 µM (inactive) with OVCAR-5; 77.3 µM (inactive) in the assay with 786-0; 68.1 µM (inactive) in the assay with OVCAR-8. In addition, the GI50 in the assay with RXF 393 was 55.8 µM (inactive); in the assay with SK-OV-3, 39.9 µM (inactive); with K562, 41 µM (inactive); in the assay on MOLT-4, 32.2 µM (inactive); with NCI-H23 it was 29.9 µM (inactive); with SNB-75, 49.8 µM (inactive). The results for the GI50 in the assay on LOX IMVI and in the assay on KM12 were 34.8 µM (inactive) and 63.2 µM (inactive), respectively.

Consider `c1ccc(N/N=N/c2ccc(-c3nc4ccccc4[nH]3)cc2)nc1`, for which the GI50 is 15.2 µM (inactive) in the assay on NCI-H460; 50.8 µM (inactive) in the assay on HL-60; 11.3 µM (inactive) with MCF7; 16.6 µM (inactive) in the assay on HOP-62; 21.6 µM (inactive) in the assay on MDA-MB-435; > 100 µM (inactive) in the assay on A498. Besides, the GI50 in the assay on HCT-15 was 15.8 µM; with M14 it was 37.4 µM (inactive); in the assay on NCI-H522 it was 16.8 µM (inactive); in the assay on OVCAR-5 it was 26.3 µM (inactive); in the assay with 786-0, 14.4 µM (inactive); in the assay with OVCAR-8, 21.7 µM (inactive). For the same compound, the GI50 was 16.4 µM (inactive) with RXF 393; 14.7 µM (inactive) in the assay on SK-OV-3; 7.31 µM (inactive) with K562; 4.43 µM (inactive) with MOLT-4; 31.8 µM (inactive) in the assay on NCI-H23; 21.6 µM (inactive) in the assay with SNB-75. For the same compound, the results for the GI50 in the assay on LOX IMVI and in the assay with KM12 were 18.5 µM (inactive) and 13.6 µM (inactive), respectively.

For the compound `C=C1C(=O)OC2/C=C(/C)C(OC(C)=O)CC(O)/C(C)=C\C(OC(=O)/C(C)=C\C)C12` (stereo not given), the GI50 in the assay with NCI-H460 is > 100 µM (inactive); in the assay on HL-60, 17 µM (inactive); in the assay on MCF7, 34 µM (inactive); in the assay with HOP-62, > 100 µM (inactive); with MDA-MB-435, 81.8 µM (inactive); with A498, > 100 µM (inactive). Also, the GI50 with HCT-15 is 36.6 µM; with M14, 53.6 µM (inactive); in the assay on NCI-H522 it was 10.6 µM (inactive); in the assay with OVCAR-5, > 100 µM (inactive); in the assay with 786-0 it was 17.1 µM (inactive); in the assay on OVCAR-8, 35.3 µM (inactive). In addition, the GI50 was 51.9 µM (inactive) in the assay on RXF 393; > 100 µM (inactive) with SK-OV-3; 35.2 µM (inactive) with K562; 29.6 µM (inactive) with MOLT-4; > 100 µM (inactive) in the assay with NCI-H23; > 100 µM (inactive) in the assay on SNB-75. In addition, the GI50 in the assay with LOX IMVI was 28.5 µM (inactive); with KM12 it was > 100 µM (inactive).

Take `COc1cc(/C=C/C(=O)c2c([O-])on[n+]2-c2ccccc2)ccc1O`: the GI50 in the assay with NCI-H460 is 2.07 µM (inactive); in the assay with HL-60, 0.853 µM (active); with MCF7 it was 3.49 µM (inactive); in the assay on HOP-62, 4.4 µM (inactive); in the assay on MDA-MB-435, 2.75 µM (inactive); with A498 it was 7.46 µM (inactive). The GI50 is 2.13 µM with HCT-15; 3.43 µM (inactive) in the assay on M14; 1.73 µM (inactive) in the assay with NCI-H522; 11 µM (inactive) in the assay with OVCAR-5; 2 µM (inactive) in the assay with 786-0; 2.4 µM (inactive) in the assay with OVCAR-8. Further, the GI50 in the assay on RXF 393 is 2 µM (inactive); in the assay on SK-OV-3, 3.73 µM (inactive); in the assay on K562 it was 2.7 µM (inactive); in the assay on MOLT-4, 2.2 µM (inactive); in the assay on NCI-H23, 2.69 µM (inactive); in the assay on SNB-75 it was 2.5 µM (inactive). Besides, the GI50 with LOX IMVI is 2.09 µM (inactive); in the assay with KM12, 2.31 µM (inactive).

For `c1nc(N2CC2)c2cnn(C3CCCCO3)c2n1` (stereo not given), the GI50 with NCI-H460, in the assay on HL-60, in the assay with MCF7, in the assay on HOP-62, in the assay with MDA-MB-435 and with A498 was > 100 µM (inactive) each time. Besides, the GI50 is over 100 µM in the assay with HCT-15; > 100 µM (inactive) in the assay on M14; > 100 µM (inactive) in the assay on NCI-H522; > 100 µM (inactive) with OVCAR-5; > 100 µM (inactive) with 786-0; > 100 µM (inactive) with OVCAR-8. Besides, the GI50 with RXF 393 is > 100 µM (inactive); with SK-OV-3 it was > 100 µM (inactive); with K562 it was 36.6 µM (inactive); in the assay with MOLT-4 it was > 100 µM (inactive); with NCI-H23, > 100 µM (inactive); in the assay with SNB-75, > 100 µM (inactive). In addition, the GI50 in the assay with LOX IMVI and with KM12 was > 100 µM (inactive) throughout.

Take `COc1cc2c(/C=C3/C(=O)N(c4ccccc4)c4ccccc43)c(Cl)[nH]c2cc1C`: the GI50 is 2.73 µM (inactive) in the assay with NCI-H460; 2.31 µM (inactive) with HL-60; 3.01 µM (inactive) in the assay on MCF7; 3.07 µM (inactive) in the assay on HOP-62; 0.998 µM (active) in the assay on MDA-MB-435; 6.46 µM (inactive) with A498. In addition, the GI50 with HCT-15 is 2.83 µM; in the assay with M14 it was 3.18 µM (inactive); in the assay with NCI-H522 it was 1.44 µM (inactive); in the assay with OVCAR-5, 3.45 µM (inactive); in the assay on 786-0, 3.15 µM (inactive); with OVCAR-8 it was 2.12 µM (inactive). In addition, the GI50 is 4.29 µM (inactive) in the assay with RXF 393; 1.89 µM (inactive) in the assay with SK-OV-3; 2.84 µM (inactive) in the assay on K562; 2.56 µM (inactive) with MOLT-4; 2.58 µM (inactive) in the assay on NCI-H23; 3.71 µM (inactive) with SNB-75. Moreover, the GI50 in the assay on LOX IMVI is 2.94 µM (inactive); in the assay with KM12 it was 2.14 µM (inactive).
